Test results from patent US12304912B2, “Fused bicyclic RAF inhibitors and methods for use thereof” (Jazz Pharmaceuticals Ireland Limited, priority 2020, dated 2025).
Blank lines part the entries; values can stand above or below the molecule they belong to.

What was measured:
[1] = Microsomal stability assay, human liver microsomes (HLM); assay type: in vitro ADME; details: 0.5 mg/mL protein, 1 μM substrate
Method in brief: (§1)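 Half-life and CLint come from the ln(% remaining)–time slope, with remaining compound quantified by LC-MS/MS after ice-cold solvent quench of timed samples. Incubations used 1 μM test compound and 0.5 mg·mL^−1 human or mouse liver microsomal protein at 37° C.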

[2] = Microsomal stability assay, mouse liver microsomes (MLM); assay type: in vitro ADME; details: 0.5 mg/mL protein, 1 μM substrate
Method in brief: as §1

[3] = Plasma protein binding assay, human plasma (hPPB); assay type: in vitro ADME; details: 5 μM, equilibrium dialysis 4 hours 37° C.
Method in brief: (§2)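 Equilibrium dialysis of 5 μM compound in previously frozen human or mouse plasma against phosphate buffer, 4 h at 37 °C. Both chambers quantified by LC-MS/MS; % free = (1−((PC−PF)/PC))×100.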

[4] = test system: BRAF monomers in A375 cells; experiment: A375 AlphaLISA SureFire pERK1/2 cellular assay (monomer); assay type: cell-based; details: Homo sapiens, A-375; A375 cells, 1 hr; read-out: pERK A375 (1 hr) pIC50 (converted)
Description: (§3) The human HCT-116 colorectal carcinoma cell line (ATCC CCL-247) endogenously expresses the KRAS^G13D mutation, which leads to constitutive activation of the MAP kinase pathway and phosphorylation of ERK. […] Assay read outs took place 2 or 24 hours after dosing with compounds. On the first day, HCT-116 cells were harvested, resuspended in growth medium (McCoys5A with Glutamax (Life Technologies 36600021) and 10% heat-inactivated fetal bovine serum (Sigma F9665)), and counted. Cells were plated in 100 μl per well in each well of a 96-well culture dish (Sigma CLS3598) to a final density of 30,000 (2 hr read) or 15,000 (24 hr read) cells per well and incubated over night at 37° C. and 5% CO2. On day 2, the growth medium was exchanged for dosing medium (McCoys5A with Glutamax (Life Technologies 36600021) and 1% heat-inactivated fetal bovine serum (Sigma F9665)) and the cells were dosed with compounds to produce a 10-point dose response, where the top concentration was 1 μM and subsequent concentrations were at 1/3 log dilution intervals. A matched DMSO control was included. The cells were subsequently incubated for either 2 or 24 hours at 37° C. and 5% CO2. After incubation, media was removed and the cells were incubated with lysis buffer containing phosphatase inhibitors for 15 minutes at room temperature. Cell lysates were transferred to a 12 area 96 well white Optiplate™ (Perkin Elmer 6005569) and incubated with anti-mouse IgG acceptor beads, a biotinylated anti-ERK1/2 rabbit antibody recognizing both phosphorylated and non-phosphorylated ERK1/2, a mouse antibody targeted to the Thr202/Tyr204 epitope and recognizing phosphorylated ERK proteins only, and streptavidin-coated donor beads. The biotinylated antibody binds to the streptavidin-coated donor beads and the phopsho-ERK1/2 antibody binds to the acceptor beads. Plates were read on an EnVision reader (Perkin Elmer) and excitation of the beads at 680 nm with a laser induced the release of singlet oxygen molecules from the donor beads that trigger energy transfer to the acceptor beads in close proximity, producing a signal that can be measured at […]. Both antibodies bound to phosphorylated ERK proteins, bringing the donor and acceptor beads into close proximity. All data were analyzed using the Dotmatics or GraphPad Prism software packages. Inhibition of ERK phosphorylation was assessed by determination of the absolute IC50 value, which is defined as the concentration of compound required to decrease the level of phosphorylated ERK proteins by 50% when compared to DMSO control.
A375 AlphaLISA SureFire pERK1/2 Cellular Assay (Monomer)
The human A375 melanoma cell line (ATCC CRL-1619) endogenously expresses the BRAF^V600E mutation, which leads to constitutive activation of the MAP kinase pathway and phosphorylation of ERK. In BRAF^V600E mutant tumours, BRAF signals as a monomer to activate ERK. To determine whether compounds can inhibit BRAF monomers in A375 cells, they were tested using AlphaLISA® SureFire® technology (Perkin Elmer p-ERK1/2 p-T202/Y204 assay kit ALSU-PERK-A10K). The main procedure is essentially the same as described above for HCT-116 cells, with the following adjustments: The A375 cells were cultivated and dosed in Dulbecco's modified Eagle's medium containing 4.5 g/L D-glucose (Sigma D6546), 10% heat-inactivated fetal bovine serum (Sigma F9665), and 1% Sodium-Pyruvate (Sigma S8636), and seeded with a seeding density of 30,000 cells per well. No media exchange was performed before dosing with compounds to produce a 10-point dose response, where the top concentration was 10 μM and subsequent concentrations were at 1/2 log dilution intervals. Subsequently, the cells were incubated for 1 hour at 37° C. and 5% CO2 before lysis.

[5] = Solubility (Sol), medium not stated; assay type: physicochemical; details: cells not marked (FESSIF)
[6] = test system: RAF dimers in HCT-116 cells; experiment: HCT-116 AlphaLISA SureFire pERK1/2 cellular assay (dimer); assay type: cell-based; details: Homo sapiens, HCT-116; HCT116 cells pre-dosed with 1 μM Encorafenib, 1 hr; read-out: pERK HCT116 dimer (1 hr) pIC50 (converted)
Description: as §3
HCT-116 AlphaLISA SureFire pERK1/2 Cellular Assay (Dimer)
The human HCT-116 colorectal carcinoma cell line (ATCC CCL-247) endogenously expresses the KRAS^G13D mutation, which leads to constitutive activation of the MAP kinase pathway and phosphorylation of ERK. First generation RAF inhibitors can promote RAF dimer formation in KRAS mutant tumours leading to a paradoxical activation of the pathway. To determine whether compounds can circumvent this problem and inhibit RAF dimers in HCT-116 cells, they were tested using AlphaLISA® SureFire® technology (Perkin Elmer p-ERK1/2 p-T202/Y204 assay kit ALSU-PERK-A10K). The main procedure is essentially the same as described above, with the following adjustments: Cells were seeded with the seeding density of 30,000 cells per well. On the second day (the day of dosing) no medium change was performed and the cells were dosed with 1 μM of Encorafenib for 1 hour (at 37° C. and 5% CO2) to induce RAF dimers and promote paradoxical dimer-dependent pERK signalling. After incubation, the cells were washed, 100 μl fresh growth medium was added, and cells were dosed with compounds of interest to produce a 10-point dose response, where the top concentration was 10 μM and subsequent concentrations are at 1/2 log dilution intervals. Cells were incubated for another hour at 37° C. and 5% CO2 before lysis and processing with the pERK AlphaLISA® SureFire® kit as described above. […]

[7] = Plasma protein binding assay, mouse plasma (mPPB); assay type: in vitro ADME; details: 5 μM, equilibrium dialysis 4 hours 37° C.
Method in brief: as §2

SMILES: CC(C)NCc1cc(-c2c[nH]c(C3COc4ccc(Oc5ccnc6c5CCC(=O)N6)cc4C3)n2)cc(C(F)(F)F)c1 (centres unmarked) [Compound 6, 5-[3-[4-[3-[(isopropylamino)methyl]-5-(trifluoromethyl)phenyl]-1H-imidazol-2-yl]chroman-6-yl]oxy-3,4-dihydro-1H-1,8-naphthyridin-2-one]
- microsomal CLint at 1 μM [1]: 33.4 µL/min/mg
- microsomal CLint at 1 μM [2]: 18.1 µL/min/mg
- hPPB (% free) [3]: 2.4 % free
- IC50 [4]: 977 nM
- Sol [5]: <1.4 mg/L
- IC50 [6]: 447 nM
- mPPB (% free) [7]: 1.3 % free

SMILES: Cc1cc(C(F)(F)F)cc2nc(C3COc4ccc(Oc5ccnc6c5CCC(=O)N6)cc4C3)[nH]c12 (centres unmarked) [Compound 31]
- microsomal CLint at 1 μM [1]: 34.6 µL/min/mg
- microsomal CLint at 1 μM [2]: 26 µL/min/mg
- hPPB (% free) [3]: <0.1 % free
- IC50 [4]: 126 nM
- Sol [5]: <1.2 mg/L
- IC50 [6]: 871 nM
- mPPB (% free) [7]: 0.2 % free

- microsomal CLint at 1 μM [1]: 18.4 µL/min/mg
- microsomal CLint at 1 μM [2]: 45.5 µL/min/mg
- hPPB (% free) [3]: 1.9 % free
- Sol [5]: <1 mg/L
- mPPB (% free) [7]: 2.3 % free
SMILES: O=C1CCc2c(Oc3ccc4c(c3)CN(C(=O)Nc3ccccc3)CC4)ccnc2N1 [Compound 46, 7-[(7-oxo-6,8-dihydro-5H-1,8-naphthyridin-4-yl)oxy]-N-phenyl-3,4-dihydro-1H-isoquinoline-2-carboxamide]

SMILES: COc1ccccc1-c1c[nH]c(C2COc3ccc(Oc4ccnc5c4CCC(=O)N5)cc3C2)n1 (centres unmarked) [Compound 1, 5-[3-[4-(2-methoxyphenyl)-1H-imidazol-2-yl]chroman-6-yl]oxy-3,4-dihydro-1H-1,8-naphthyridin-2-one]
- microsomal CLint at 1 μM [1]: 123 µL/min/mg
- microsomal CLint at 1 μM [2]: 109 µL/min/mg
- hPPB (% free) [3]: 0.2 % free
- IC50 [4]: 28.2 nM
- Sol [5]: <1.2 mg/L
- IC50 [6]: 67.6 nM
- mPPB (% free) [7]: 0.5 % free

SMILES: CN(C)Cc1cc(-c2c[nH]c(C3COc4ccc(Oc5ccnc6c5CCC(=O)N6)cc4C3)n2)cc(C(F)(F)F)c1 (centres unmarked) [Compound 7, 5-[3-[4-[3-[(dimethylamino)methyl]-5-(trifluoromethyl)phenyl]-1H-imidazol-2-yl]chroman-6-yl]oxy-3,4-dihydro-1H-1,8-naphthyridin-2-one]
- microsomal CLint at 1 μM [1]: 67.9 µL/min/mg
- microsomal CLint at 1 μM [2]: 39.2 µL/min/mg
- hPPB (% free) [3]: 1.9 % free
- IC50 [4]: 692 nM
- Sol [5]: <1.4 mg/L
- IC50 [6]: 191 nM
- mPPB (% free) [7]: 0.9 % free

SMILES: O=C1CCc2c(Oc3ccc4c(c3)CN(C(=O)Nc3ccccc3C(F)(F)F)CC4)ccnc2N1 [Compound 49]
- microsomal CLint at 1 μM [1]: 82.2 µL/min/mg
- microsomal CLint at 1 μM [2]: 83.6 µL/min/mg
- hPPB (% free) [3]: 1.9 % free
- IC50 [4]: 7760 nM
- Sol [5]: <1.2 mg/L
- IC50 [6]: 8910 nM
- mPPB (% free) [7]: 2.5 % free

SMILES: N#Cc1ccc(-c2c[nH]c(C3COc4ccc(Oc5ccnc6c5CCC(=O)N6)cc4C3)n2)cc1 (centres unmarked) [Compound 21]
- microsomal CLint at 1 μM [1]: 15.6 µL/min/mg
- microsomal CLint at 1 μM [2]: 23.2 µL/min/mg
- hPPB (% free) [3]: 0.7 % free
- IC50 [4]: 933 nM
- Sol [5]: <1.2 mg/L
- IC50 [6]: 275 nM
- mPPB (% free) [7]: 1.6 % free

SMILES: O=C1CCc2c(Oc3ccc4c(c3)CC(c3nc(-c5cc(F)ccc5F)c[nH]3)CO4)ccnc2N1 (centres unmarked) [Compound 5, 5-[3-[4-(2,5-difluorophenyl)-1H-imidazol-2-yl]chroman-6-yl]oxy-3,4-dihydro-1H-1,8-naphthyridin-2-one]
- microsomal CLint at 1 μM [1]: 33.9 µL/min/mg
- microsomal CLint at 1 μM [2]: 28.5 µL/min/mg
- hPPB (% free) [3]: 0.3 % free
- IC50 [4]: 186 nM
- Sol [5]: <1.2 mg/L
- IC50 [6]: 191 nM
- mPPB (% free) [7]: 0.4 % free

SMILES: O=C1CCc2c(Oc3ccc4c(c3)CC(c3nc(-c5ccc(Cl)cc5)c[nH]3)CO4)ccnc2N1 (centres unmarked) [Compound 11, 5-[3-[4-(4-chlorophenyl)-1H-imidazol-2-yl]chroman-6-yl]oxy-3,4-dihydro-1H-1,8-naphthyridin-2-one]
- microsomal CLint at 1 μM [1]: 10.3 µL/min/mg
- microsomal CLint at 1 μM [2]: 29.1 µL/min/mg
- hPPB (% free) [3]: 0.5 % free
- IC50 [4]: 257 nM
- Sol [5]: <1.2 mg/L
- IC50 [6]: 214 nM
- mPPB (% free) [7]: 0.1 % free

SMILES: O=C1CCc2c(Oc3ccc4c(c3)CC(c3cc(-c5ccccc5C(F)(F)F)n[nH]3)CO4)ccnc2N1 (centres unmarked) [Compound 35, 5-[3-[3-[2-(trifluoromethyl)phenyl]-1H-pyrazol-5-yl]chroman-6-yl]oxy-3,4-dihydro-1H-1,8-naphthyridin-2-one]
- microsomal CLint at 1 μM [1]: 277 µL/min/mg
- microsomal CLint at 1 μM [2]: 42.1 µL/min/mg
- hPPB (% free) [3]: <0.1 % free
- IC50 [4]: 2450 nM
- Sol [5]: <1.3 mg/L
- IC50 [6]: 525 nM

SMILES: CN(C)Cc1cc(C(F)(F)F)cc2nc(C3COc4ccc(Oc5ccnc6c5CCC(=O)N6)cc4C3)[nH]c12 (centres unmarked) [Compound 33]
- microsomal CLint at 1 μM [1]: 77.3 µL/min/mg
- microsomal CLint at 1 μM [2]: 37 µL/min/mg
- hPPB (% free) [3]: 2 % free
- IC50 [4]: 380 nM
- Sol [5]: 7 mg/L
- IC50 [6]: 661 nM
- mPPB (% free) [7]: 3.1 % free

SMILES: Cc1ccccc1-c1c[nH]c(C2COc3ccc(Oc4ccnc5c4CCC(=O)N5)cc3C2)n1 (centres unmarked) [Compound 2, 5-[3-[4-(o-tolyl)-1H-imidazol-2-yl]chroman-6-yl]oxy-3,4-dihydro-1H-1,8-naphthyridin-2-one]
- microsomal CLint at 1 μM [1]: 147 µL/min/mg
- microsomal CLint at 1 μM [2]: 85.8 µL/min/mg
- hPPB (% free) [3]: 0.3 % free
- IC50 [4]: 12.6 nM
- Sol [5]: <1.1 mg/L
- IC50 [6]: 58.9 nM
- mPPB (% free) [7]: 1 % free

- microsomal CLint at 1 μM [1]: 46.9 µL/min/mg
- microsomal CLint at 1 μM [2]: 8.6 µL/min/mg
- hPPB (% free) [3]: 0.7 % free
- IC50 [4]: 4470 nM
- Sol [5]: 28.7 mg/L
- mPPB (% free) [7]: 3.2 % free
SMILES: CN(C)Cc1cc(C(F)(F)F)c2nc(C3COc4ccc(Oc5ccnc6c5CCC(=O)N6)cc4C3)[nH]c2c1 (centres unmarked) [Compound 34]

- microsomal CLint at 1 μM [1]: 156 µL/min/mg
- microsomal CLint at 1 μM [2]: 123 µL/min/mg
- hPPB (% free) [3]: 0.5 % free
- Sol [5]: 1.2 mg/L
- mPPB (% free) [7]: 2.6 % free
SMILES: c1ccc(-c2c[nH]c(C3COc4ccc(OC5CCOCC5)cc4C3)n2)cc1 (centres unmarked) [compound 51]
